Converted amounts (≈) assume the structure as drawn. A value given as a limit tells only on which side of the number the result lay.

What is called MIC is the lowest concentration found to suppress growth. A lower MIC goes with greater potency.

Holding throughout (assay type): cell-based
For test [1], the system named is Streptococcus pyogenes C203. The test is described as follows: MIC, standard broth micro-dilution assay. Here is the method:
The MIC's were determined using a standard broth micro-dilution assay.
A general note: Dilution methods test growth across graded concentrations, often in twofold steps.

The subject of test [2] is Entercoccus gallinarum 245. The test is described as follows: MIC, standard broth micro-dilution assay. Here is the method: (§1) The formula I compounds have in vitro and in vivo activity against Gram-positive pathogenic bacteria. The MIC's were determined using a standard broth micro-dilution assay.
The test system of a further test is Entercoccus faecalis 276. Put plainly: MIC, standard broth micro-dilution assay. As to the method:
as §1

A further test concerns Leuconostoc lactis. Put plainly: MIC, agar dilution on brain-heart infusion agar. The conditions noted are these: Leuconostoc lactis (mean of 2). In general terms: In agar dilution the substance is mixed into plates at graded concentrations.
For test [3], the system named is Entercoccus faecalis 2041. The test is described as follows: MIC, standard broth micro-dilution assay. As to the method: as §1
The test system of test [4] is Leuconostoc mesenteroides. Put plainly: MIC, agar dilution on brain-heart infusion agar. The conditions noted are these: Leuconostoc mesenteroides (mean of 4).
The test system of a further test is Lactobacillus confusus. Put plainly: MIC, agar dilution on brain-heart infusion agar.
The subject of a further test is Pediococcus pentosaceus. The test is described as follows: MIC, agar dilution on brain-heart infusion agar. The conditions noted are these: Pediococcus pentosaceus (mean of 2).
For another test, the system named is Pedicoccus acidilacti. Put plainly: MIC, agar dilution on brain-heart infusion agar. The note with it: Pedioccccus acidilacti (mean of 10).
Test [5] concerns Leuconostoc pseudomesenteroides. The test is described as follows: MIC, agar dilution on brain-heart infusion agar.
The next test has as its system Leuconostoc citreum. Put plainly: MIC, agar dilution on brain-heart infusion agar.

Turning to `CCCCCCCCCCCCOc1ccc(CNC2(C)CC(OC3C(Oc4c5cc6cc4Oc4ccc(cc4Cl)C(OC4CC(C)(N)C(O)C(C)O4)C4NC(=O)C(NC(=O)C6NC(=O)C(CC(N)=O)NC(=O)C(NC(=O)C(CC(C)C)NC)C(O)c6ccc(c(Cl)c6)O5)c5ccc(O)c(c5)-c5c(O)cc(O)cc5C(C(=O)O)NC4=O)OC(CO)C(O)C3O)OC(C)C2O)cc1` (stereo not shown) [Compound 10, 4-dodecyloxybenzyl], the MIC amounted to 0.5 µg/mL (≈ 0.268 µM) in test [1], 8 µg/mL (≈ 4.29 µM) in test [2] and 18 µg/mL (≈ 9.64 µM) against Entercoccus faecalis 276.

For the compound `CNC(CC(C)C)C(=O)NC1C(=O)NC(CC(N)=O)C(=O)NC2C(=O)NC3C(=O)NC(C(=O)NC(C(=O)O)c4cc(O)cc(O)c4-c4cc3ccc4O)C(OC3CC(C)(N)C(O)C(C)O3)c3ccc(c(Cl)c3)Oc3cc2cc(c3OC2OC(CO)C(O)C(O)C2OC2CC(C)(NCc3ccc(Oc4ccccc4)cc3)C(O)C(C)O2)Oc2ccc(cc2Cl)C1O` (stereo not shown) [Compound 4, p-phenoxybenzyl.cndot.A82846B], the MIC against Leuconostoc lactis is 16 µg/mL (≈ 9.02 µM); in test [2], at most 0.06 µg/mL; in test [3], at most 0.06 µg/mL; against Entercoccus faecalis 276, at most 0.06 µg/mL; in [4] it was 16 µg/mL (≈ 9.02 µM); with Lactobacillus confusus, 32 µg/mL (≈ 18 µM). Further, the minimal inhibitory concentration (MIC) against Pediococcus pentosaceus came to 16 µg/mL (≈ 9.02 µM); with Pedicoccus acidilacti it was 7.5 µg/mL (≈ 4.23 µM); in [5] it was 32 µg/mL (≈ 18 µM).

For `CNC(CC(C)C)C(=O)NC1C(=O)NC(CC(N)=O)C(=O)NC2C(=O)NC3C(=O)NC(C(=O)NC(C(=O)O)c4cc(O)cc(O)c4-c4cc3ccc4O)C(OC3CC(C)(N)C(O)C(C)O3)c3ccc(c(Cl)c3)Oc3cc2cc(c3OC2OC(CO)C(O)C(O)C2OC2CC(C)(NCc3ccc(OC4CCCCC4)cc3)C(O)C(C)O2)Oc2ccc(cc2Cl)C1O` (stereo not shown) [Compound 124, 4-cyclohexyloxybenzyl], the MIC against Leuconostoc lactis is 16 µg/mL (≈ 8.99 µM); in the test with Leuconostoc citreum, 64 µg/mL (≈ 35.9 µM); in [2], 1 µg/mL (≈ 0.562 µM); in test [3], at most 0.06 µg/mL; against Entercoccus faecalis 276, at most 0.06 µg/mL; in [4], 16 µg/mL (≈ 8.99 µM). In addition, the MIC against Lactobacillus confusus stood at 16 µg/mL (≈ 8.99 µM); against Pediococcus pentosaceus it was 16 µg/mL (≈ 8.99 µM); with Pedicoccus acidilacti, 20 µg/mL (≈ 11.2 µM); in test [5] it was 64 µg/mL (≈ 35.9 µM).

Take `CNC(CC(C)C)C(=O)NC1C(=O)NC(CC(N)=O)C(=O)NC2C(=O)NC3C(=O)NC(C(=O)NC(C(=O)O)c4cc(O)cc(O)c4-c4cc3ccc4O)C(OC3CC(C)(N)C(O)C(C)O3)c3ccc(c(Cl)c3)Oc3cc2cc(c3OC2OC(CO)C(O)C(O)C2OC2CC(C)(NCc3ccc(OCc4ccccc4)cc3)C(O)C(C)O2)Oc2ccc(cc2Cl)C1O` (stereo not shown) [Compound 5, 4-benzyloxybenzyl]: the MIC against Leuconostoc lactis is 8.0 µg/mL (≈ 4.47 µM); against Leuconostoc citreum it was 64 µg/mL (≈ 35.8 µM); in [2], at most 0.06 µg/mL; in test [3] it was at most 0.06 µg/mL; with Entercoccus faecalis 276, at most 0.06 µg/mL; in test [4], 8 µg/mL (≈ 4.47 µM). The MIC in the test on Lactobacillus confusus amounted to 16 µg/mL (≈ 8.95 µM); against Pediococcus pentosaceus, 8.0 µg/mL (≈ 4.47 µM); against Pedicoccus acidilacti it was 2.8 µg/mL (≈ 1.57 µM); in test [5] it was 16 µg/mL (≈ 8.95 µM).

In the case of `CN[C@H](CC(C)C)C(=O)N[C@H]1C(=O)N[C@@H](CC(N)=O)C(=O)N[C@H]2C(=O)N[C@H]3C(=O)N[C@H](C(=O)N[C@H](C(=O)O)c4cc(O)cc(O)c4-c4cc3ccc4O)[C@H](O)c3ccc(c(Cl)c3)Oc3cc2cc(c3O[C@@H]2O[C@H](CO)[C@@H](O)[C@H](O)[C@H]2O[C@H]2C[C@](C)(N)[C@H](O)[C@H](C)O2)Oc2ccc(cc2Cl)[C@H]1O` [vancomycin, reference compound], the MIC against Leuconostoc lactis was 1024 µg/mL (≈ 707 µM); against Leuconostoc citreum it was over 1024 µg/mL; in test [2], 4 µg/mL (≈ 2.76 µM); in [3], 2 µg/mL (≈ 1.38 µM); with Entercoccus faecalis 276, 1 µg/mL (≈ 0.69 µM); in [4], 1024 µg/mL (≈ 707 µM). Moreover, the MIC was 1024 µg/mL (≈ 707 µM) with Lactobacillus confusus, 1024 µg/mL (≈ 707 µM) with Pediococcus pentosaceus, 891 µg/mL (≈ 615 µM) against Pedicoccus acidilacti and over 1024 µg/mL in test [5].

Take `CNC(CC(C)C)C(=O)NC1C(=O)NC(CC(N)=O)C(=O)NC2C(=O)NC3C(=O)NC(C(=O)NC(C(=O)O)c4cc(O)cc(O)c4-c4cc3ccc4O)C(OC3CC(C)(N)C(O)C(C)O3)c3ccc(c(Cl)c3)Oc3cc2cc(c3OC2OC(CO)C(O)C(O)C2OC2CC(C)(NCc3ccc4c(c3)Cc3ccccc3-4)C(O)C(C)O2)Oc2ccc(cc2Cl)C1O` (stereo not shown) [Compound 32, 2-fluorenylmethyl]: the MIC in the test on Leuconostoc lactis is 16 µg/mL (≈ 9.04 µM); against Leuconostoc citreum it was 64 µg/mL (≈ 36.1 µM); in test [4] it was 16 µg/mL (≈ 9.04 µM); with Lactobacillus confusus it was 16 µg/mL (≈ 9.04 µM); with Pediococcus pentosaceus, 16 µg/mL (≈ 9.04 µM).

For the compound `CNC(CC(C)C)C(=O)NC1C(=O)NC(CC(N)=O)C(=O)NC2C(=O)NC3C(=O)NC(C(=O)NC(C(=O)O)c4cc(O)cc(O)c4-c4cc3ccc4O)C(OC3CC(C)(N)C(O)C(C)O3)c3ccc(c(Cl)c3)Oc3cc2cc(c3OC2OC(CO)C(O)C(O)C2OC2CC(C)(NCc3ccc(C=Cc4ccccc4)cc3)C(O)C(C)O2)Oc2ccc(cc2Cl)C1O` (stereo not shown) [Compound 29, 4-stilbenzyl], the minimal inhibitory concentration (MIC) in the test on Leuconostoc lactis worked out at 5.7 µg/mL (≈ 3.19 µM); with Leuconostoc citreum it was 32 µg/mL (≈ 17.9 µM); in test [2], 0.25 µg/mL (≈ 0.14 µM); in test [3], 0.25 µg/mL (≈ 0.14 µM); against Entercoccus faecalis 276, 0.25 µg/mL (≈ 0.14 µM); in test [4] it was 6.7 µg/mL (≈ 3.75 µM). The minimal inhibitory concentration (MIC) with Lactobacillus confusus came to 8 µg/mL (≈ 4.48 µM); against Pediococcus pentosaceus, 8.0 µg/mL (≈ 4.48 µM); with Pedicoccus acidilacti it was 4.0 µg/mL (≈ 2.24 µM); in test [5] it was 16 µg/mL (≈ 8.97 µM).

Take `CNC(CC(C)C)C(=O)NC1C(=O)NC(CC(N)=O)C(=O)NC2C(=O)NC3C(=O)NC(C(=O)NC(C(=O)O)c4cc(O)cc(O)c4-c4cc3ccc4O)C(OC3CC(C)(N)C(O)C(C)O3)c3ccc(c(Cl)c3)Oc3cc2cc(c3OC2OC(CO)C(O)C(O)C2OC2CC(C)(NCc3ccc(-c4ccc(-c5ccccc5)cc4)cc3)C(O)C(C)O2)Oc2ccc(cc2Cl)C1O` (stereo not shown) [Compound 36, 4-[4-biphenyl]benzyl]: the MIC against Leuconostoc lactis stood at 16 µg/mL (≈ 8.72 µM); in the test on Leuconostoc citreum, 32 µg/mL (≈ 17.4 µM); in test [2], 0.25 µg/mL (≈ 0.136 µM); in [3], 1 µg/mL (≈ 0.545 µM); against Entercoccus faecalis 276 it was 2 µg/mL (≈ 1.09 µM); in [4], 16 µg/mL (≈ 8.72 µM). The MIC in the test with Lactobacillus confusus was 32 µg/mL (≈ 17.4 µM); against Pediococcus pentosaceus, 16 µg/mL (≈ 8.72 µM); in the test with Pedicoccus acidilacti, 9.2 µg/mL (≈ 5.01 µM); in [5] it was 32 µg/mL (≈ 17.4 µM).

Source of the values: patent US5843889A, “Glycopeptide antibiotic derivatives” (Eli Lilly and Company, priority 1997, dated 1998).
